Target: T1, 15-PGDH/HPGD (Homo sapiens, UniProt P15428)
T1 construct: purchased R&D System 5660-DH
T1 sequence (P15428 1-266): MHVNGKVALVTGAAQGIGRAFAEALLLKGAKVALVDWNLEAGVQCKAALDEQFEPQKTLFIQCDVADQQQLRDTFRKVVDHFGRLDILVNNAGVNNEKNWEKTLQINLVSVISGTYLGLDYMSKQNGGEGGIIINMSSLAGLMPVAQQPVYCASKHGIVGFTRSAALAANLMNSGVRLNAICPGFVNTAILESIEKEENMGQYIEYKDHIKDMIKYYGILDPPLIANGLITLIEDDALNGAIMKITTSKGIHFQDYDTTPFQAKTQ
Assay: hPGDH inhibitor screening biochemical assay
Conditions: 10 nM enzyme, fluorescence ex/em 340/485 nm
Method: A hydroxyprostaglandin dehydrogenase inhibition screening biochemical assay can be performed to assess the synthesized inhibitors provided herein. Provided herein is an exemplary biochemical assay for hPGDH inhibitor screening.
The in vitro biochemical assay can be performed in white, 384 plates in total 20 μl reaction volume consisting of 10 nM of 15-PGDH/HPGD (R&D System #5660-DH), 15 µM Prostaglandin E2 (Sigma, Cat #P5640-10MG) and 0.25 mM β-Nicotinamide adenine dinucleotide sodium salt (Sigma, Cat #N0632-5G) made in reaction buffer (50 mM Tris-HCl, pH 7.5, 0.01% Tween 20) at 10-point dose response curve for test/tool compounds. Briefly, 5 μl (4×) of compounds solution and 5 μl (final concentration, 10 nM) of enzyme solution is added to white 384 well plates and incubated for 10 mins at 37° C. 5 μl (4×) of Prostaglandin E2 and 5 μl (4×) of β-Nicotinamide adenine dinucleotide sodium salt is added to the wells and incubated for 10 mins at room temperature. Fluorescence is recorded at ex/em=340 nm/485 nm.

CC(C)OC[S+]([O-])c1cnc2c(cnn2-c2cccc(-c3nnc[nH]3)c2)c1 (single isomer, unassigned) [Compound 2A, 1-(3-(4H-1,2,4-triazol-3-yl)phenyl)-5-((isopropoxymethyl)sulfinyl)-1H-pyrazolo[3,4-b]pyridine]
IC50: 100 to 1000 nM

[O-][S+](c1cnc2c(cnn2-c2cccc(-c3ccc(O)nc3)c2)c1)C1CCC(F)(F)C1 (single isomer, unassigned) [Compound 5B]
IC50: ≥ 1000 nM

[O-][S+](c1cnc2c(cnn2-c2cccc(-c3ccc(O)nc3)c2)c1)C1CCC(F)(F)C1 (single isomer, unassigned) [Compound 5D]
IC50: < 100 nM

[O-][S+](c1cnc2c(cnn2-c2cccc(-c3nnc[nH]3)c2)c1)C1CC(F)(F)C1 (single isomer, unassigned) [Compound 7A]
IC50: 100 to 1000 nM

[O-][S+](c1cnc2c(cnn2-c2cccc(-c3nnc[nH]3)c2)c1)C1CCC(F)(F)C1 (single isomer, unassigned) [Compound 8A]
IC50: ≥ 1000 nM

[O-][S+](c1cnc2c(cnn2-c2cccc(-c3nnc[nH]3)c2)c1)C1CCC(F)(F)C1 (single isomer, unassigned) [Compound 8B]
IC50: 100 to 1000 nM

CC(=O)Nc1cccc(-c2cncc(-n3ncc4cc([S+]([O-])C5CCCC5)cnc43)c2)c1 (single isomer, unassigned) [Compound 14B]
IC50: 100 to 1000 nM

COc1cc(-c2cccc(-n3ncc4cc([S+]([O-])C5CCC5)cnc43)c2)ccn1 (single isomer, unassigned) [Compound 93B]
IC50: ≥ 1000 nM

COCC(C)(C)C[S+]([O-])c1cnc2c(cnn2-c2cccc(-c3nnc[nH]3)c2)c1 (single isomer, unassigned) [Compound 126A]
IC50: ≥ 1000 nM

COCC(C)(C)C[S+]([O-])c1cnc2c(cnn2-c2cccc(-c3nnc[nH]3)c2)c1 (single isomer, unassigned) [Compound 126B]
IC50: < 100 nM

CCCC[S+]([O-])c1cnc2c(cnn2-c2cc(F)cc(NC(=O)OCC)c2)c1 (centres unmarked) [Compound 27B]
IC50: ≥ 1000 nM

O=S(=O)(c1cnc2c(cnn2-c2ccc(-c3nnc[nH]3)cc2)c1)C1CCOCC1 [Compound 37]
IC50: ≥ 1000 nM

CCOC(=O)Nc1cncc(-n2ncc3cc(C(=O)CC4CCC4)cnc32)c1 [Compound 42]
IC50: < 100 nM

CCOC(=O)Nc1cncc(-n2ccc3cc([S+]([O-])C4CC4)cnc32)c1 (centres unmarked) [Compound 67]
IC50: < 100 nM

COc1ccc(-c2cccc(-n3ncc4cc([S+]([O-])C5CCC5)cnc43)c2)cn1 (centres unmarked) [Compound 90B]
IC50: 100 to 1000 nM

[O-][S+](c1cnc2c(cnn2-c2cccc(-c3ccnc(N4CCOCC4)c3)c2)c1)C1CCC1 (centres unmarked) [Compound 91A]
IC50: < 100 nM

[O-][S+](c1cnc2c(cnn2-c2cccc(-c3ccnc(N4CCOCC4)c3)c2)c1)C1CCC1 (centres unmarked) [Compound 91B]
IC50: 100 to 1000 nM

Cc1nnc(-c2cccc(-n3ncc4cc([S+]([O-])C5CCC5)cnc43)c2)[nH]1 (centres unmarked) [Compound 92A]
IC50: 100 to 1000 nM

O=c1cc(-c2cccc(-n3ncc4cc([S+]([O-])C5CCC5)cnc43)c2)cc[nH]1 (centres unmarked) [Compound 94B]
IC50: 100 to 1000 nM

[O-][S+](c1cnc2c(cnn2-c2cccc(-c3ccc(N4CCOCC4)nc3)c2)c1)C1CCC1 (centres unmarked) [Compound 95A]
IC50: < 100 nM

[O-][S+](c1cnc2c(cnn2-c2cccc(-c3ccc(N4CCOCC4)nc3)c2)c1)C1CCC1 (centres unmarked) [Compound 95B]
IC50: 100 to 1000 nM

COCCC[S+]([O-])c1cnc2c(ccn2-c2cccc(-c3nnc[nH]3)c2)n1 (centres unmarked) [Compound 103A]
IC50: 100 to 1000 nM

[O-][S+](c1cnc2c(cnn2-c2ccc3nc(N4CCOCC4)nn3c2)c1)C1CC(F)(F)C1 (centres unmarked) [Compound 117A]
IC50: < 100 nM

[O-][S+](c1cnc2c(cnn2-c2ccc3nc(N4CCOCC4)nn3c2)c1)C1CC(F)(F)C1 (centres unmarked) [Compound 117B]
IC50: 100 to 1000 nM

CC(C)CC[S+]([O-])c1cnc2c(cnn2-c2ccc(CCCC(=O)O)c(F)c2)c1 (centres unmarked) [Compound 127A]
IC50: 100 to 1000 nM

CC(C)CC[S+]([O-])c1cnc2c(cnn2-c2ccc(CCCC(=O)O)c(F)c2)c1 (centres unmarked) [Compound 127B]
IC50: < 100 nM
